# Data as given in patent US9833497B2, “Human originated EGF domain proteins and use of the same” (CHENGDU SOURCEBIO LIMITED-LIABILITY COMPANY, priority 2013, dated 2017).
# Key:
# Format in all cases: cell-based
# Klebsiella pneumonia = assay: MIC against Gram-negative bacteria: Klebsiella pneumonia; settings: 5×10^5 CFU/mL
# Summary of the method: (§1)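 Inocula prepared by growing LB cultures at 37° C to 0.5 McFarland, centrifuging at 4000×g, and resuspending in fresh medium. Final density 5×10^5 CFU/mL per well with two-fold dilutions of purified EGF domain protein; shaking incubation at 37° C.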
# Enterobacter cloacae = assay: MIC against Gram-negative bacteria: Enterobacter cloacae; settings: 5×10^5 CFU/mL
# Summary of the method: as §1
# Proteus vulgaris = assay: MIC against Gram-negative bacteria: Proteus vulgaris; settings: 5×10^5 CFU/mL
# Summary of the method: as §1
# Pseudomonas aeruginosa = assay: MIC against Gram-negative bacteria: Pseudomonas aeruginosa; settings: 5×10^5 CFU/mL
# Summary of the method: as §1
# Citrobacter diversus = assay: MIC against Gram-negative bacteria: Citrobacter diversus; settings: 5×10^5 CFU/mL
# Summary of the method: as §1
# E. coli BL21 = assay: MIC against Gram-negative bacteria: E. coli BL21; settings: 5×10^5 CFU/mL
# Summary of the method: as §1
# Moraxella catarrhalis = assay: MIC against Gram-negative bacteria: Moraxella catarrhalis; settings: 5×10^5 CFU/mL
# Summary of the method: as §1
# E. coli DH5α = assay: Antibacterial activity: MIC and growth curve against E. coli DH5α in 96-well plate; settings: minimal inhibitory concentration against E. coli DH5α; 96-well plate, 5×10^5 CFU/mL, 37° C., judged after 8 h
# Summary of the method: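 MIC taken as lowest protein level with no bacterial growth, tracked by A600 every 30 min during 37 °C, 175 rpm culture. Two-fold protein series 50-12.5 μg/mL final, triplicate wells, against 5×10^5 CFU/mL of LB-washed mid-log cells.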
# Proteus mirabilis = assay: MIC against Gram-negative bacteria: Proteus mirabilis; settings: 5×10^5 CFU/mL
# Summary of the method: as §1
# Serratia marcescens = assay: MIC against Gram-negative bacteria: Serratia marcescens; settings: 5×10^5 CFU/mL
# Summary of the method: as §1
# Aeromonas hydrophila = assay: MIC against Gram-negative bacteria: Aeromonas hydrophila; settings: 5×10^5 CFU/mL
# Summary of the method: as §1
# [1] = 10 h cultivation at 37° C., two-fold serial dilution
# [2] = E. coli BL21, 10 h cultivation at 37° C.
substance,measurement,setting,value
PRT1161 (DIDECASHPCKNGATCIDQPGNYFCQCVPPFKVVDGFSCL; listed as Homo sapiens),MIC K. pneumonia,Klebsiella pneumonia; [1],12.5 µg/mL
same,MIC E. cloacae,Enterobacter cloacae; [1],25 µg/mL
same,MIC P. vulgaris,Proteus vulgaris; [1],25 µg/mL
same,MIC P. aeruginosa,Pseudomonas aeruginosa; [1],12.5 µg/mL
same,MIC C. diversus,Citrobacter diversus; [1],50 µg/mL
same,MIC E. coli BL21,E. coli BL21; [1],12.5 µg/mL
same,MIC M. catarrhalis,Moraxella catarrhalis; [1],25 µg/mL
same,MIC,E. coli DH5α,25 µg/mL
same,MIC P. mirabilis,Proteus mirabilis; [1],12.5 µg/mL
same,MIC S. marcescens,Serratia marcescens; [1],50 µg/mL
same,MIC A. hydrophila,Aeromonas hydrophila; [1],25 µg/mL
PRT626 (CDCQSAGSLHLQCDDTGTCACKPTVTGWKCDRCLPGFHSLSEGGCRP; listed as Homo sapiens),MIC K. pneumonia,"Klebsiella pneumonia; 96-well plate, 37° C., 10 h",12.5 µg/mL
same,MIC E. cloacae,"Enterobacter cloacae; 96-well plate, 37° C., 10 h",25 µg/mL
same,MIC P. vulgaris,"Proteus vulgaris; 96-well plate, 37° C., 10 h",50 µg/mL
same,MIC P. aeruginosa,"Pseudomonas aeruginosa; 96-well plate, 37° C., 10 h",25 µg/mL
same,MIC C. diversus,"Citrobacter diversus; 96-well plate, 37° C., 10 h",25 µg/mL
same,MIC E. coli BL21,"E. coli BL21; 96-well plate, 37° C., 10 h",50 µg/mL
same,MIC M. catarrhalis,"Moraxella catarrhalis; 96-well plate, 37° C., 10 h",12.5 µg/mL
same,MIC,E. coli DH5α,25 µg/mL
same,MIC P. mirabilis,"Proteus mirabilis; 96-well plate, 37° C., 10 h",25 µg/mL
same,MIC S. marcescens,"Serratia marcescens; 96-well plate, 37° C., 10 h",25 µg/mL
same,MIC A. hydrophila,"Aeromonas hydrophila; 96-well plate, 37° C., 10 h",50 µg/mL
PRT616 (CDCNGKSRQCIFDRELHRQTGNGFRCLNCNDNTDGIHCEKCKNGFYRHRERDRCLP; listed as Homo sapiens),MIC K. pneumonia,"Klebsiella pneumonia; 96-well plate, 37° C., 10 h",50 µg/mL
same,MIC E. cloacae,"Enterobacter cloacae; 96-well plate, 37° C., 10 h",12.5 µg/mL
same,MIC P. vulgaris,"Proteus vulgaris; 96-well plate, 37° C., 10 h",25 µg/mL
same,MIC P. aeruginosa,"Pseudomonas aeruginosa; 96-well plate, 37° C., 10 h",25 µg/mL
same,MIC C. diversus,"Citrobacter diversus; 96-well plate, 37° C., 10 h",12.5 µg/mL
same,MIC E. coli BL21,"E. coli BL21; 96-well plate, 37° C., 10 h",12.5 µg/mL
same,MIC M. catarrhalis,"Moraxella catarrhalis; 96-well plate, 37° C., 10 h",25 µg/mL
same,MIC,E. coli DH5α,25 µg/mL
same,MIC P. mirabilis,"Proteus mirabilis; 96-well plate, 37° C., 10 h",12.5 µg/mL
same,MIC S. marcescens,"Serratia marcescens; 96-well plate, 37° C., 10 h",12.5 µg/mL
same,MIC A. hydrophila,"Aeromonas hydrophila; 96-well plate, 37° C., 10 h",25 µg/mL
PRT771 (VQDLCSKTTCKNDGVCTVRDGKAECRCQSGEDWWYMGERCE; listed as Homo sapiens),MIC (μg/mL) K. pneumonia,Klebsiella pneumonia; 10 h cultivation at 37° C.,12.5 µg/mL
same,MIC (μg/mL) E. cloacae,Enterobacter cloacae; 10 h cultivation at 37° C.,50 µg/mL
same,MIC (μg/mL) P. vulgaris,Proteus vulgaris; 10 h cultivation at 37° C.,12.5 µg/mL
same,MIC (μg/mL) P. aeruginosa,Pseudomonas aeruginosa; 10 h cultivation at 37° C.,50 µg/mL
same,MIC (μg/mL) C. diversus,Citrobacter diversus; 10 h cultivation at 37° C.,50 µg/mL
same,MIC (μg/mL) E. coli BL21,E. coli BL21; [2],12.5 µg/mL
same,MIC (μg/mL) M. catarrhalis,Moraxella catarrhalis; 10 h cultivation at 37° C.,12.5 µg/mL
same,MIC,E. coli DH5α,25 µg/mL
same,MIC (μg/mL) P. mirabilis,Proteus mirabilis; 10 h cultivation at 37° C.,50 µg/mL
same,MIC (μg/mL) S. marcescens,Serratia marcescens; 10 h cultivation at 37° C.,50 µg/mL
same,MIC (μg/mL) A. hydrophila,Aeromonas hydrophila; 10 h cultivation at 37° C.,12.5 µg/mL
PRT248 (DVDECSARRGGCPQRCVNTAGSYWCQCWEGHSLSADGTLCV; listed as Homo sapiens),MIC (μg/mL) K. pneumonia,Klebsiella pneumonia; 10 h cultivation at 37° C.,25 µg/mL
same,MIC (μg/mL) E. cloacae,Enterobacter cloacae; 10 h cultivation at 37° C.,12.5 µg/mL
same,MIC (μg/mL) P. vulgaris,Proteus vulgaris; 10 h cultivation at 37° C.,25 µg/mL
same,MIC (μg/mL) P. aeruginosa,Pseudomonas aeruginosa; 10 h cultivation at 37° C.,12.5 µg/mL
same,MIC (μg/mL) C. diversus,Citrobacter diversus; 10 h cultivation at 37° C.,12.5 µg/mL
same,MIC (μg/mL) E. coli BL21,E. coli BL21; [2],25 µg/mL
same,MIC (μg/mL) M. catarrhalis,Moraxella catarrhalis; 10 h cultivation at 37° C.,25 µg/mL
same,MIC,E. coli DH5α,12.5 µg/mL
same,MIC (μg/mL) P. mirabilis,Proteus mirabilis; 10 h cultivation at 37° C.,12.5 µg/mL
same,MIC (μg/mL) S. marcescens,Serratia marcescens; 10 h cultivation at 37° C.,12.5 µg/mL
same,MIC (μg/mL) A. hydrophila,Aeromonas hydrophila; 10 h cultivation at 37° C.,25 µg/mL
PRT685 (DVNECLEGDFCFPHGECLNTDGSFACTCAPGYRPGPRGASCL; listed as Homo sapiens),MIC K. pneumonia,"Klebsiella pneumonia; 96-well plate, 37° C., 10 h",50 µg/mL
same,MIC E. cloacae,"Enterobacter cloacae; 96-well plate, 37° C., 10 h",12.5 µg/mL
same,MIC P. vulgaris,"Proteus vulgaris; 96-well plate, 37° C., 10 h",50 µg/mL
same,MIC P. aeruginosa,"Pseudomonas aeruginosa; 96-well plate, 37° C., 10 h",12.5 µg/mL
same,MIC C. diversus,"Citrobacter diversus; 96-well plate, 37° C., 10 h",12.5 µg/mL
same,MIC E. coli BL21,"E. coli BL21; 96-well plate, 37° C., 10 h",25 µg/mL
same,MIC M. catarrhalis,"Moraxella catarrhalis; 96-well plate, 37° C., 10 h",50 µg/mL
same,MIC,E. coli DH5α,50 µg/mL
same,MIC P. mirabilis,"Proteus mirabilis; 96-well plate, 37° C., 10 h",25 µg/mL
same,MIC S. marcescens,"Serratia marcescens; 96-well plate, 37° C., 10 h",50 µg/mL
same,MIC A. hydrophila,"Aeromonas hydrophila; 96-well plate, 37° C., 10 h",50 µg/mL
PRT1224 (PPGDCASHPCQNGGSCEPGLHSGFTCSCPDSHTGRTCE; listed as Homo sapiens),MIC against K. pneumonia,"Klebsiella pneumonia; Klebsiella pneumonia, 96-well plate, 37° C., 10 h",12.5 µg/mL
same,MIC against E. cloacae,"Enterobacter cloacae; Enterobacter cloacae, 96-well plate, 37° C., 10 h",25 µg/mL
same,MIC against P. vulgaris,"Proteus vulgaris; Proteus vulgaris, 96-well plate, 37° C., 10 h",12.5 µg/mL
same,MIC against P. aeruginosa,"Pseudomonas aeruginosa; Pseudomonas aeruginosa, 96-well plate, 37° C., 10 h",25 µg/mL
same,MIC against C. diversus,"Citrobacter diversus; Citrobacter diversus, 96-well plate, 37° C., 10 h",12.5 µg/mL
same,MIC against E. coli BL21,"E. coli BL21; E. coli BL21, 96-well plate, 37° C., 10 h",50 µg/mL
same,MIC against M. catarrhalis,"Moraxella catarrhalis; Moraxella catarrhalis, 96-well plate, 37° C., 10 h",25 µg/mL
same,MIC,E. coli DH5α,25 µg/mL
same,MIC against P. mirabilis,"Proteus mirabilis; Proteus mirabilis, 96-well plate, 37° C., 10 h",50 µg/mL
same,MIC against S. marcescens,"Serratia marcescens; Serratia marcescens, 96-well plate, 37° C., 10 h",50 µg/mL
same,MIC against A. hydrophila,"Aeromonas hydrophila; Aeromonas hydrophila, 96-well plate, 37° C., 10 h",50 µg/mL
